Reference: ChEMBL document CHEMBL2321725, “Optimization of non-ATP competitive CDK/cyclin groove inhibitors through REPLACE-mediated fragment assembly” (J Med Chem, 2013)
Peptide text beside a SMILES is read from it. * marks the point of attachment. X14 = Cc1nc(C(=O)*)nn1-c1cc(Cl)cc(Cl)c1; X17 = Cc1cc(C(=O)*)nn1-c1cc(Cl)cc(Cl)c1; X18 = O=C(c1ccc(-c2cc(Cl)cc(Cl)c2)o1)*; X9 = O=C(c1ccn(-c2cc(Cl)cc(Cl)c2)c1)*; X13 = O=C(c1c[nH]c(-c2cccc(F)c2)n1)*; X11 = Cc1cc(C(=O)*)nn1-c1ccc(Cl)cc1; X12 = Cc1nc(C(=O)*)nn1-c1ccc(Cl)cc1; X16 = Cc1nc(C(=O)*)nn1-c1cccc(Cl)c1; X15 = O=C(c1ccn(-c2ccc(Cl)cc2)c1)*; X2 = Cc1cc(C(=O)*)nn1-c1cccc(Cl)c1; X3 = COc1ccc(-n2nc(C(=O)*)cc2C)cc1; X6 = COc1cccc(-n2nc(C(=O)*)cc2C)c1; X1 = Cc1cccc(-n2nc(C(=O)*)nc2C)c1; X4 = O=C(c1ccc(-c2cccc(Cl)c2)o1)*; X5 = O=C(c1csc(-c2ccc(Cl)cc2)n1)*; X7 = Cc1cc(C(=O)*)nn1-c1cccc(F)c1; X10 = Cc1cc(C(=O)*)nn1-c1ccccc1; X8 = Cn1cc(C(=O)*)nc1-c1ccccc1

Assays:
[1] = target: Cyclin-dependent kinase 2/cyclin A (Homo sapiens, UniProt P24941); assay: Inhibition of human recombinant CDK2/Cyclin A2 using fluoresceinyl-Ahx-Pro-Val-Lys-Arg-Arg-Leu-Phe-Gly tracer peptide as substrate after 45 mins by fluorescent polarization binding assay; type: protein-complex assay
[2] = target: Cyclin-dependent kinase 4/cyclin D1 (Homo sapiens, UniProt P11802); assay: Inhibition of human recombinant CDK4/Cyclin D1 using fluoresceinyl-Ahx-Pro-Val-Lys-Arg-Arg-Leu-(3ClPhe)-Gly tracer peptide as substrate after 45 mins by fluorescent polarization binding assay
Cyclin-dependent kinase 4/cyclin D1, sequence (P11802 whole entry): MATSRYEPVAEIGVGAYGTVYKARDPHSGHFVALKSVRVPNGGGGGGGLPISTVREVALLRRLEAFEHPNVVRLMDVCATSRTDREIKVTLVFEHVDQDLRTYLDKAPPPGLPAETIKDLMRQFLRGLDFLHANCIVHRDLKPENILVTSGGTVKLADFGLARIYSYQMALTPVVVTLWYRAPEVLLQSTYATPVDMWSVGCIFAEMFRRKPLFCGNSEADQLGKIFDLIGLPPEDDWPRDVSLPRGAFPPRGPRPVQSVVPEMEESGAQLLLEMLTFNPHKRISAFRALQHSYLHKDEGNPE
Cyclin-dependent kinase 4/cyclin D1, sequence (P24385 whole entry, further chain): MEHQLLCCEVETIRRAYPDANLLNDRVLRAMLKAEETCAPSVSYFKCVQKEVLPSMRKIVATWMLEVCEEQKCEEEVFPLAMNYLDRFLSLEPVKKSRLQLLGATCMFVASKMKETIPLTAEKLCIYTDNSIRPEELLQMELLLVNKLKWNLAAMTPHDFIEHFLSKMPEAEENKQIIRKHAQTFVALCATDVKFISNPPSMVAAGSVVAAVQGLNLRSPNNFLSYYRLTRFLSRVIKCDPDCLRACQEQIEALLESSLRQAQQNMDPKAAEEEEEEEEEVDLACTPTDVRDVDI

| Structure (SMILES) | IC50 [1] [µM] | IC50 [2] [µM] |
| --- | --- | --- |
| Cc1nc(C(=O)N[C@@H](CCCNC(=N)N)C(=O)N[C@@H](CC(C)C)C(=O)NCc2cccc(Oc3ccccc3)c2)nn1-c1ccc(Cl)cc1 | 106 | > 200 |
| Cc1nc(C(=O)N[C@@H](CCCNC(=N)N)C(=O)N[C@@H](CC(C)C)C(=O)NCc2cc(Oc3cccc(F)c3)ccn2)nn1-c1ccc(Cl)cc1 | 53.2 | > 200 |
| Cc1nc(C(=O)N[C@@H](CCCNC(=N)N)C(=O)N[C@@H](CC(C)C)C(=O)NCc2cc(Oc3ccc(F)cc3)ccn2)nn1-c1ccc(Cl)cc1 | 18.1 | > 200 |
| Cc1nc(C(=O)N[C@@H](CCCNC(=N)N)C(=O)N[C@@H](CC(C)C)C(=O)NCc2cc(Oc3ccc(Cl)cc3)ccn2)nn1-c1ccc(Cl)cc1 | 54.4 | > 500 |
| Cc1ccccc1Oc1ccnc(CNC(=O)[C@H](CC(C)C)NC(=O)[C@H](CCCNC(=N)N)NC(=O)c2nc(C)n(-c3ccc(Cl)cc3)n2)c1 | 60 | > 500 |
| Cc1nc(C(=O)N[C@@H](CCCNC(=N)N)C(=O)N[C@@H](CC(C)C)C(=O)NCc2cc(Oc3cccc(Cl)c3)ccn2)nn1-c1cc(Cl)cc(Cl)c1 | 61 | 120 |
| Cc1nc(C(=O)N[C@@H](CCCNC(=N)N)C(=O)N[C@@H](CC(C)C)C(=O)NCc2cccc(Oc3cc(Cl)cc(Cl)c3)c2)nn1-c1cc(Cl)cc(Cl)c1 | > 180 | 120 |
| Cc1nc(C(=O)N[C@@H](CCCNC(=N)N)C(=O)N[C@@H](CC(C)C)C(=O)NCc2cc(Oc3ccc(F)c(F)c3)ccn2)nn1-c1cc(Cl)cc(Cl)c1 | > 180 | > 180 |
| CC[C@H](C)[C@H](NC(=O)[C@H](CC(C)C)NC(=O)[C@H](CCCNC(=N)N)NC(=O)c1nc(C)n(-c2cccc(C)c2)n1)C(=O)N[C@@H](Cc1ccccc1)C(N)=O (X1-RLIF-NH2) | 13.8 | 51.1 |
| CC[C@H](C)[C@H](NC(=O)[C@H](CC(C)C)NC(=O)[C@H](CCCNC(=N)N)NC(=O)c1cc(C)n(-c2cccc(Cl)c2)n1)C(=O)N[C@@H](Cc1ccccc1)C(N)=O (X2-RLIF-NH2) | 11.9 | 70.3 |
| CC[C@H](C)[C@H](NC(=O)[C@H](CC(C)C)NC(=O)[C@H](CCCNC(=N)N)NC(=O)c1cc(C)n(-c2ccc(OC)cc2)n1)C(=O)N[C@@H](Cc1ccccc1)C(N)=O (X3-RLIF-NH2) | > 180 | > 180 |
| CC[C@H](C)[C@H](NC(=O)[C@H](CC(C)C)NC(=O)[C@H](CCCNC(=N)N)NC(=O)c1ccc(-c2cccc(Cl)c2)o1)C(=O)N[C@@H](Cc1ccccc1)C(N)=O (X4-RLIF-NH2) | > 180 | > 180 |
| CC[C@H](C)[C@H](NC(=O)[C@H](CC(C)C)NC(=O)[C@H](CCCNC(=N)N)NC(=O)c1csc(-c2ccc(Cl)cc2)n1)C(=O)N[C@@H](Cc1ccccc1)C(N)=O (X5-RLIF-NH2) | > 180 | > 180 |
| CC[C@H](C)[C@H](NC(=O)[C@H](CC(C)C)NC(=O)[C@H](CCCNC(=N)N)NC(=O)c1cc(C)n(-c2cccc(OC)c2)n1)C(=O)N[C@@H](Cc1ccccc1)C(N)=O (X6-RLIF-NH2) | 64.1 | > 100 |
| CC[C@H](C)[C@H](NC(=O)[C@H](CC(C)C)NC(=O)[C@H](CCCNC(=N)N)NC(=O)c1cc(C)n(-c2cccc(F)c2)n1)C(=O)N[C@@H](Cc1ccccc1)C(N)=O (X7-RLIF-NH2) | 29.6 | 65.9 |
| CC[C@H](C)[C@H](NC(=O)[C@H](CC(C)C)NC(=O)[C@H](CCCNC(=N)N)NC(=O)c1cn(C)c(-c2ccccc2)n1)C(=O)N[C@@H](Cc1ccccc1)C(N)=O (X8-RLIF-NH2) | > 180 | > 180 |
| CC[C@H](C)[C@H](NC(=O)[C@H](CC(C)C)NC(=O)[C@H](CCCNC(=N)N)NC(=O)c1ccn(-c2cc(Cl)cc(Cl)c2)c1)C(=O)N[C@@H](Cc1ccccc1)C(N)=O (X9-RLIF-NH2) | > 180 | > 180 |
| CC[C@H](C)[C@H](NC(=O)[C@H](CC(C)C)NC(=O)[C@H](CCCNC(=N)N)NC(=O)c1cc(C)n(-c2ccccc2)n1)C(=O)N[C@@H](Cc1ccccc1)C(N)=O (X10-RLIF-NH2) | 40.3 | 54.2 |
| CC[C@H](C)[C@H](NC(=O)[C@H](CC(C)C)NC(=O)[C@H](CCCNC(=N)N)NC(=O)c1cc(C)n(-c2ccc(Cl)cc2)n1)C(=O)N[C@@H](Cc1ccccc1)C(N)=O (X11-RLIF-NH2) | 33.7 | 54.7 |
| CC[C@H](C)[C@H](NC(=O)[C@H](CC(C)C)NC(=O)[C@H](CCCNC(=N)N)NC(=O)c1nc(C)n(-c2ccc(Cl)cc2)n1)C(=O)N[C@@H](Cc1ccccc1)C(N)=O (X12-RLIF-NH2) | 11.5 | 12 |
| CC[C@H](C)[C@H](NC(=O)[C@H](CC(C)C)NC(=O)[C@H](CCCNC(=N)N)NC(=O)c1c[nH]c(-c2cccc(F)c2)n1)C(=O)N[C@@H](Cc1ccccc1)C(N)=O (X13-RLIF-NH2) | 34.3 | 68.5 |
| CC[C@H](C)[C@H](NC(=O)[C@H](CC(C)C)NC(=O)[C@H](CCCNC(=N)N)NC(=O)c1nc(C)n(-c2cc(Cl)cc(Cl)c2)n1)C(=O)N[C@@H](Cc1ccccc1)C(N)=O (X14-RLIF-NH2) | 4 | 27.3 |
| CC[C@H](C)[C@H](NC(=O)[C@H](CC(C)C)NC(=O)[C@H](CCCNC(=N)N)NC(=O)c1ccn(-c2ccc(Cl)cc2)c1)C(=O)N[C@@H](Cc1ccccc1)C(N)=O (X15-RLIF-NH2) | > 180 | > 180 |
| CC[C@H](C)[C@H](NC(=O)[C@H](CC(C)C)NC(=O)[C@H](CCCNC(=N)N)NC(=O)c1nc(C)n(-c2cccc(Cl)c2)n1)C(=O)N[C@@H](Cc1ccccc1)C(N)=O (X16-RLIF-NH2) | 5.7 | 26.5 |
| CC[C@H](C)[C@H](NC(=O)[C@H](CC(C)C)NC(=O)[C@H](CCCNC(=N)N)NC(=O)c1cc(C)n(-c2cc(Cl)cc(Cl)c2)n1)C(=O)N[C@@H](Cc1ccccc1)C(N)=O (X17-RLIF-NH2) | 21.8 | > 100 |
| CC[C@H](C)[C@H](NC(=O)[C@H](CC(C)C)NC(=O)[C@H](CCCNC(=N)N)NC(=O)c1ccc(-c2cc(Cl)cc(Cl)c2)o1)C(=O)N[C@@H](Cc1ccccc1)C(N)=O (X18-RLIF-NH2) | > 180 | > 180 |
